# In patent US7294642B2, “1,3-Diamino-2-hydroxypropane pro-drug derivatives” (Elan Pharmaceuticals, Inc., priority 2002, dated 2007):
# Assay: Acyl group migration (rearrangement) of pro-drug in DMSO-d6/buffer solution monitored by 19F-NMR
# Assay type: physicochemical
# Procedure: A compound of formula (I) OR (X) (5 mg) is dissolved in DMSO-d6 (500 μL) and either pH 4 buffer solution (500 μL, potassium hydrogen phthalate buffer) or pH 7 buffer solution (500 μL, sodium and potassium phosphate buffer) is added. The sample is then heated to 40° C. The O-acyl or N-acyl to N-terminal N-acyl migration is monitored by observing the change in chemical shift for the aromatic fluorines using ^19F-NMR. (Fluorine shifts associated with the desired migration were confirmed by spiking with authentic analogue). The sample is analyzed by ^19F-NMR at approxiamately 0, 1.5, 3, 24, 48, and 144 hours. The amount of O-acyl pro-drug, N-acyl pro-drug, and desired migration product at each time point are assigned by integrating the corresponding NMR signal.
# N˜1˜-[(2R,3S)-3-amino-4-(3,5-difluorophenyl)-2-hydroxybutyl]-5-(1,3-oxazol-2-yl)-N˜3˜,N˜3˜-dipropyl-N˜1˜-[3-(trifluoromethyl)benzyl]isophthalamide hydrochloride (PREPARATION 7, 5 mg) is dissolved in DMSO-d6 (500 μL) and pH 4 buffer solution (500 μL, potassium hydrogen phthalate buffer) is added. The sample is then heated to 40° C. The N-acyl to N-terminal N-acyl migration is monitored by observing the change in chemical shift for the aromatic fluorines using ^19F-NMR. (Fluorine shifts for the desired migration product in the presence of buffer was confirmed by spiking with authentic migration product, N^1-((1S,2R)-1-(3,5-difluorobenzyl)-2-hydroxy-3-{[3-(trifluoromethyl)benzyl]amino}propyl)-5-(1,3-oxazol-2-yl)-N^3,N^3-dipropylisophthalamide.) NMR data is collected at 0, 1, 3, 25, 48, 96, and 144 hours. The amount of N-acyl pro-drug and desired migration product present at each time point is assigned by integrating the corresponding NMR signal.
# The following examples illustrate the solution acyl group migration of compounds of the formulae (I) and (X) as observed by ^19F NMR spectroscopy. Data were collected as described in Example 1, above.
Structure (SMILES),"HEA product (% present) (pH 4, 40° C., time 0 hr) [%]","N-acyl prodrug (% present) (pH 4, 40° C., time 0 hr) [%]","O-acyl pro-drug (% present) (pH 4, 40° C., time 0 hr) [%]","HEA product (% present) (pH 4, 40° C., time 1 hr) [%]","N-acyl prodrug (% present) (pH 4, 40° C., time 1 hr) [%]","O-acyl pro-drug (% present) (pH 4, 40° C., time 1 hr) [%]","HEA product (% present) (pH 4, 40° C., time 3 hr) [%]","N-acyl prodrug (% present) (pH 4, 40° C., time 3 hr) [%]","O-acyl pro-drug (% present) (pH 4, 40° C., time 3 hr) [%]","HEA product (% present) (pH 4, 40° C., time 24 hr) [%]","N-acyl prodrug (% present) (pH 4, 40° C., time 24 hr) [%]","O-acyl pro-drug (% present) (pH 4, 40° C., time 24 hr) [%]","HEA product (% present) (pH 4, 40° C., time 48 hr) [%]","N-acyl prodrug (% present) (pH 4, 40° C., time 48 hr) [%]","O-acyl pro-drug (% present) (pH 4, 40° C., time 48 hr) [%]","HEA product (% present) (pH 7, 40° C., time 0 hr) [%]","N-acyl prodrug (% present) (pH 7, 40° C., time 0 hr) [%]","O-acyl pro-drug (% present) (pH 7, 40° C., time 0 hr) [%]","N-acyl prodrug (% present) (pH 7, 40° C., time 24 hr) [%]","N-acyl prodrug (% present) (pH 7, 40° C., time 48 hr) [%]",also measured
"CCCN(CCC)C(=O)c1cc(C(=O)N(Cc2cccc(CC)c2)C[C@@H](O)[C@@H](N)Cc2cc(F)cc(F)c2)cc(-c2ncco2)c1.Cl [Preparation 19, N^1-[(2R,3S)-3-amino-4-(3,5-difluorophenyl)-2-hydroxybutyl]-N\(u)1\(d)-(3-ethylbenzyl)-5-(1,3-oxazol-2-yl)-N^3,N^3-dispropylisophthalamide hydrochloride]",0,100,0,0,100,0,0,100,0,3,97,0,5,95,0,0,100,0,60,37,"HEA product (% present) (pH 4, 40° C., time 96 hr): 8%; N-acyl prodrug (% present) (pH 4, 40° C., time 96 hr): 92%; O-acyl pro-drug (% present) (pH 4, 40° C., time 96 hr): 0%; HEA product (% present) (pH 7, 40° C., time 1 hr): 3%; N-acyl prodrug (% present) (pH 7, 40° C., time 1 hr): 97%; O-acyl pro-drug (% present) (pH 7, 40° C., time 1 hr): 0%; HEA product (% present) (pH 7, 40° C., time 3 hr): 9%; N-acyl prodrug (% present) (pH 7, 40° C., time 3 hr): 91%; O-acyl pro-drug (% present) (pH 7, 40° C., time 3 hr): 0%; HEA product (% present) (pH 7, 40° C., time 24 hr): 40%; O-acyl pro-drug (% present) (pH 7, 40° C., time 24 hr): 0%; HEA product (% present) (pH 7, 40° C., time 48 hr): 63%; O-acyl pro-drug (% present) (pH 7, 40° C., time 48 hr): 0%; HEA product (% present) (pH 7, 40° C., time 96 hr): 81%; N-acyl prodrug (% present) (pH 7, 40° C., time 96 hr): 19%; O-acyl pro-drug (% present) (pH 7, 40° C., time 96 hr): 0%"
"CCCN(CCC)C(=O)c1cc(C(=O)N(Cc2cccc(C(F)(F)F)c2)C[C@@H](O)[C@@H](N)Cc2cc(F)cc(F)c2)cc(-c2ncco2)c1.Cl [N˜1˜-[(2R,3S)-3-amino-4-(3,5-difluorophenyl)-2-hydroxybutyl]-5-(1,3-oxazol-2-yl)-N˜3˜,N˜3˜-dipropyl-N˜1˜-[3-(trifluoromethyl)benzyl]isophthalamide hydrochloride]",,,,,,,,,,,,,,,,,,,,,"migration of N-acyl pro-drug to O-acyl pro-drug (pH 4 buffer/DMSO-d6, 40° C., 0 to 144 hours, 19F-NMR): No migration to O-acyl pro-drug was observed"
"C#Cc1cccc(C2(NC[C@@H](OC(=O)c3cc(C(=O)N(CCC)CCC)cc(-c4ncco4)c3)[C@@H](N)Cc3cc(F)cc(F)c3)CC2)c1 [Preparation 22, (1R,2S)-2-amino-3-(3,5-difluorophenyl)-1-({[1-(3-ethynylphenyl)cyclopropyl]amino}methyl)propyl 3-[(dipropylamino)carbonyl]-5-(1,3-oxazol-2-yl)benzoate]",0,0,100,13,0,87,27,0,66,78,0,9,86,0,0,0,0,100,,,"HEA product (% present) (pH 4, 40° C., time 0.5 hr): 7%; N-acyl prodrug (% present) (pH 4, 40° C., time 0.5 hr): 0%; O-acyl pro-drug (% present) (pH 4, 40° C., time 0.5 hr): 93%; HEA product (% present) (pH 4, 40° C., time 6 hr): 42%; N-acyl prodrug (% present) (pH 4, 40° C., time 6 hr): 0%; O-acyl pro-drug (% present) (pH 4, 40° C., time 6 hr): 49%; HEA product (% present) (pH 7, 40° C., time 0.5 hr): 10%; N-acyl prodrug (% present) (pH 7, 40° C., time 0.5 hr): 0%; O-acyl pro-drug (% present) (pH 7, 40° C., time 0.5 hr): 10%; HEA product (% present) (pH 7, 40° C., time 1 hr): 100%; N-acyl prodrug (% present) (pH 7, 40° C., time 1 hr): 0%; O-acyl pro-drug (% present) (pH 7, 40° C., time 1 hr): 0%"
"CCCN(CCC)C(=O)c1cc(C(=O)N(Cc2cccc(C(F)(F)F)c2)C[C@@H](O)[C@@H](N)Cc2cc(F)cc(F)c2)cc(-c2ncco2)c1.Cl [Preparation 20, N^1-[(2R,3S)-3-amino-4-(3,5-difluorophenyl)-2-hydroxybutyl]-5-(1,3-oxazol-2-yl)-N^3,N^3-dipropyl-N^1-[3-(trifluoromethyl)benzyl]-isophthalamide hydrochloride]",0,100,0,3,97,0,4,96,0,7,93,0,8,92,0,0,100,0,49,27,"HEA product (% present) (pH 4, 40° C., time 96 hr): 12%; N-acyl prodrug (% present) (pH 4, 40° C., time 96 hr): 88%; O-acyl pro-drug (% present) (pH 4, 40° C., time 96 hr): 0%; HEA product (% present) (pH 7, 40° C., time 1 hr): 7%; N-acyl prodrug (% present) (pH 7, 40° C., time 1 hr): 93%; O-acyl pro-drug (% present) (pH 7, 40° C., time 1 hr): 0%; HEA product (% present) (pH 7, 40° C., time 3 hr): 12%; N-acyl prodrug (% present) (pH 7, 40° C., time 3 hr): 88%; O-acyl pro-drug (% present) (pH 7, 40° C., time 3 hr): 0%; HEA product (% present) (pH 7, 40° C., time 24 hr): 51%; O-acyl pro-drug (% present) (pH 7, 40° C., time 24 hr): 0%; HEA product (% present) (pH 7, 40° C., time 48 hr): 73%; O-acyl pro-drug (% present) (pH 7, 40° C., time 48 hr): 0%; HEA product (% present) (pH 7, 40° C., time 96 hr): 88%; N-acyl prodrug (% present) (pH 7, 40° C., time 96 hr): 12%; O-acyl pro-drug (% present) (pH 7, 40° C., time 96 hr): 0%"

# Now from value to molecule, other results behind:
"HEA product (% present) (pH 4, 40° C., time 0 hr) [%]","N-acyl prodrug (% present) (pH 4, 40° C., time 0 hr) [%]","O-acyl pro-drug (% present) (pH 4, 40° C., time 0 hr) [%]","HEA product (% present) (pH 4, 40° C., time 1 hr) [%]","N-acyl prodrug (% present) (pH 4, 40° C., time 1 hr) [%]","O-acyl pro-drug (% present) (pH 4, 40° C., time 1 hr) [%]","HEA product (% present) (pH 4, 40° C., time 3 hr) [%]","N-acyl prodrug (% present) (pH 4, 40° C., time 3 hr) [%]","O-acyl pro-drug (% present) (pH 4, 40° C., time 3 hr) [%]","HEA product (% present) (pH 4, 40° C., time 24 hr) [%]","N-acyl prodrug (% present) (pH 4, 40° C., time 24 hr) [%]","O-acyl pro-drug (% present) (pH 4, 40° C., time 24 hr) [%]","HEA product (% present) (pH 4, 40° C., time 48 hr) [%]","N-acyl prodrug (% present) (pH 4, 40° C., time 48 hr) [%]","O-acyl pro-drug (% present) (pH 4, 40° C., time 48 hr) [%]","HEA product (% present) (pH 7, 40° C., time 0 hr) [%]","N-acyl prodrug (% present) (pH 7, 40° C., time 0 hr) [%]","O-acyl pro-drug (% present) (pH 7, 40° C., time 0 hr) [%]","N-acyl prodrug (% present) (pH 7, 40° C., time 24 hr) [%]","N-acyl prodrug (% present) (pH 7, 40° C., time 48 hr) [%]",Structure (SMILES),also measured
0,0,100,,,,76,15,9,88,12,0,88,12,0,0,0,100,38,29,"CCCN(CCC)C(=O)c1cc(C(=O)O[C@H](CNCc2cccc(CC)c2)[C@@H](N)Cc2cc(F)cc(F)c2)cc(-c2ncco2)c1.Cl.Cl [Preparation 16, (1R,2S)-2-amino-3-(3,5-difluorophenyl)-1-{[(3-ethylbenzyl)amino]methyl}propyl 3-[(dispropylamino)carbonyl]-5-(1,3-oxazol-2-yl)benzoate dihydrochloride]","HEA product (% present) (pH 4, 40° C., time 1.5 hr): 54%; N-acyl prodrug (% present) (pH 4, 40° C., time 1.5 hr): 13%; O-acyl pro-drug (% present) (pH 4, 40° C., time 1.5 hr): 33%; HEA product (% present) (pH 4, 40° C., time 144 hr): 91%; N-acyl prodrug (% present) (pH 4, 40° C., time 144 hr): 9%; O-acyl pro-drug (% present) (pH 4, 40° C., time 144 hr): 0%; HEA product (% present) (pH 7, 40° C., time 1.5 hr): 48%; N-acyl prodrug (% present) (pH 7, 40° C., time 1.5 hr): 52%; O-acyl pro-drug (% present) (pH 7, 40° C., time 1.5 hr): 0%; HEA product (% present) (pH 7, 40° C., time 7 hr): 54%; N-acyl prodrug (% present) (pH 7, 40° C., time 7 hr): 46%; O-acyl pro-drug (% present) (pH 7, 40° C., time 7 hr): 0%; HEA product (% present) (pH 7, 40° C., time 24 hr): 62%; O-acyl pro-drug (% present) (pH 7, 40° C., time 24 hr): 0%; HEA product (% present) (pH 7, 40° C., time 48 hr): 71%; O-acyl pro-drug (% present) (pH 7, 40° C., time 48 hr): 0%; HEA product (% present) (pH 7, 40° C., time 144 hr): 85%; N-acyl prodrug (% present) (pH 7, 40° C., time 144 hr): 15%; O-acyl pro-drug (% present) (pH 7, 40° C., time 144 hr): 0%"
0,0,100,,,,67,0,33,100,0,0,,,,0,0,100,0,0,"CCCN(CCC)C(=O)c1cc(C(=O)O[C@H](CNC2(c3cccc(CC)c3)CC2)[C@@H](N)Cc2cc(F)cc(F)c2)cc(-c2ncco2)c1.Cl.Cl [Preparation 17, (1R,2S)-2-amino-3-(3,5-difluorophenyl)-1-({[1-(3-ethylphenyl)cyclopropyl]amino}methyl)propyl 3-[(dipropylamino)carbonyl]-5-(1,3-oxazol-2-yl)benzoate dihydrochloride]","HEA product (% present) (pH 4, 40° C., time 1.5 hr): 47%; N-acyl prodrug (% present) (pH 4, 40° C., time 1.5 hr): 0%; O-acyl pro-drug (% present) (pH 4, 40° C., time 1.5 hr): 53%; HEA product (% present) (pH 4, 40° C., time 6 hr): 89%; N-acyl prodrug (% present) (pH 4, 40° C., time 6 hr): 0%; O-acyl pro-drug (% present) (pH 4, 40° C., time 6 hr): 11%; HEA product (% present) (pH 7, 40° C., time 1.5 hr): 97%; N-acyl prodrug (% present) (pH 7, 40° C., time 1.5 hr): 0%; O-acyl pro-drug (% present) (pH 7, 40° C., time 1.5 hr): 3%; N-acyl prodrug (% present) (pH 7, 40° C., time 7 hr): 0%; N-acyl prodrug (% present) (pH 7, 40° C., time 144 hr): 0%"
